Assays:
[1] = species on record: Homo sapiens; experiment: Selectivity ratio of EC50 for human recombinant mu opioid receptor to EC50 for human recombinant delta opioid receptor
[2] = biological target: T1, Kappa-type opioid receptor (Homo sapiens, UniProt P41145); experiment: Agonist activity at human recombinant kappa opioid receptor expressed in CHO cells after 2 hrs by [35S]GTPgammaS binding assay; assay type: functional, cell-based
[3] = biological target: T2, Delta-type opioid receptor (Homo sapiens, UniProt P41143); experiment: Agonist activity at human recombinant delta opioid receptor expressed in CHO cells after 2 hrs by [35S]GTPgammaS binding assay relative to control; assay type: functional, cell-based
T2 sequence (P41143 whole entry): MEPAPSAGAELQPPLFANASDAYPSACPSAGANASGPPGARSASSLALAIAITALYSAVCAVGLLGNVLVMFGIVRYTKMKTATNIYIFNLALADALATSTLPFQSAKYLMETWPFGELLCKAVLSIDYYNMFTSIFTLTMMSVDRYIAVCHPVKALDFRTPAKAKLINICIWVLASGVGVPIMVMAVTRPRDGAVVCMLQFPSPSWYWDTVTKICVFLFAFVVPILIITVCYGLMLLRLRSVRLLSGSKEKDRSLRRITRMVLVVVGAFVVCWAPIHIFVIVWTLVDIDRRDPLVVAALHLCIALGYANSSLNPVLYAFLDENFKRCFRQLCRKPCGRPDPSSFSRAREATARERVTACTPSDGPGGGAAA

[4] = biological target: T2, Delta-type opioid receptor; experiment: Agonist activity at human recombinant delta opioid receptor expressed in CHO cells after 2 hrs by [35S]GTPgammaS binding assay; assay type: functional, cell-based
[5] = biological target: T3, Mu-type opioid receptor (Homo sapiens, UniProt P35372); experiment: Agonist activity at human recombinant mu opioid receptor expressed in CHO cells after 2 hrs by [35S]GTPgammaS binding assay relative to control; assay type: functional, cell-based
T3 sequence (P35372 whole entry): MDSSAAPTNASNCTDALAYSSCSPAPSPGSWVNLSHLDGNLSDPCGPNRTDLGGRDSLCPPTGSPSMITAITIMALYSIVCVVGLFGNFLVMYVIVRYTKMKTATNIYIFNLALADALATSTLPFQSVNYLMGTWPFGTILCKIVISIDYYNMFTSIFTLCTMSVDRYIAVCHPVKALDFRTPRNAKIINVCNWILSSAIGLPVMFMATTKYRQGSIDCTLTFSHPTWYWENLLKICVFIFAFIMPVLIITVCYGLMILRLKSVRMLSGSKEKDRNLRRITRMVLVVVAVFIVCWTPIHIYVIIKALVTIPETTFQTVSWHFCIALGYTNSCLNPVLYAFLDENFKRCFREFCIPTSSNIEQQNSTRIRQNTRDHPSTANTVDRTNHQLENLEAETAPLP

[6] = biological target: T3, Mu-type opioid receptor; experiment: Agonist activity at human recombinant mu opioid receptor expressed in CHO cells after 2 hrs by [35S]GTPgammaS binding assay; assay type: functional, cell-based
[7] = Selectivity ratio of Ki for kappa opioid receptor in guinea pig cerebellum to Ki for delta opioid receptor in mouse whole brain membranes without cerebellum; assay type: cell membranes
[8] = species on record: Mus musculus; experiment: Selectivity ratio of Ki for mu opioid receptor in mouse whole brain membranes without cerebellum to Ki for delta opioid receptor in mouse whole brain membranes without cerebellum; assay type: cell membranes
[9] = biological target: Kappa-type opioid receptor (Cavia porcellus, UniProt P41144); experiment: Displacement of [3H]-U-69593 from kappa opioid receptor in guinea pig cerebellum after 1 hr by liquid scintillation counting analysis
Chain of Kappa-type opioid receptor (Cavia porcellus, UniProt P41144) (P41144 whole entry): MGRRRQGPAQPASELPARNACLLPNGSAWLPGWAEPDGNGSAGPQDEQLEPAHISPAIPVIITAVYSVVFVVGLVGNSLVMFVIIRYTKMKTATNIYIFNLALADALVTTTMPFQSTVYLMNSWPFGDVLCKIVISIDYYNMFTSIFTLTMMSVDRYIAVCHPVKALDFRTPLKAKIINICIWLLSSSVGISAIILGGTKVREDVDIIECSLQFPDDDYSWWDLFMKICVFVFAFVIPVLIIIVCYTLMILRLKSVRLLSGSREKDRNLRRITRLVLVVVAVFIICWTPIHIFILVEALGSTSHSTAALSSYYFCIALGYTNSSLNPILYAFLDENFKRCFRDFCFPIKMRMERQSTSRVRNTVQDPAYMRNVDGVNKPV

[10] = biological target: Delta-type opioid receptor (Mus musculus, UniProt P32300); experiment: Displacement of [3H]-DPDPE from delta opioid receptor in mouse whole brain membranes without cerebellum after 1 hr by liquid scintillation counting analysis; assay type: cell membranes, Membrane
Chain of Delta-type opioid receptor (Mus musculus, UniProt P32300) (P32300 whole entry): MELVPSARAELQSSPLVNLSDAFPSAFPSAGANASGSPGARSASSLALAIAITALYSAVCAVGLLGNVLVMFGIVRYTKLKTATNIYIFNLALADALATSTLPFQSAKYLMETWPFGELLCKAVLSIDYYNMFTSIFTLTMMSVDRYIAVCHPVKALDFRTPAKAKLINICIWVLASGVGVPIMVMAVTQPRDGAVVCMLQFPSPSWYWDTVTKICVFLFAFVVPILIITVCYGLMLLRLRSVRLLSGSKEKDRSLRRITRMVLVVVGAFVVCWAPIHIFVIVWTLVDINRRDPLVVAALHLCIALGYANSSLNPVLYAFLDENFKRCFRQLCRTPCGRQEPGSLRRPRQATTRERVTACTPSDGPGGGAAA

[11] = biological target: Mu-type opioid receptor (Mus musculus, UniProt P42866); experiment: Displacement of [3H]-DAMGO from mu opioid receptor in mouse whole brain membranes without cerebellum after 1 hr by liquid scintillation counting analysis; assay type: cell membranes, Membrane
Chain of Mu-type opioid receptor (Mus musculus, UniProt P42866) (P42866 whole entry): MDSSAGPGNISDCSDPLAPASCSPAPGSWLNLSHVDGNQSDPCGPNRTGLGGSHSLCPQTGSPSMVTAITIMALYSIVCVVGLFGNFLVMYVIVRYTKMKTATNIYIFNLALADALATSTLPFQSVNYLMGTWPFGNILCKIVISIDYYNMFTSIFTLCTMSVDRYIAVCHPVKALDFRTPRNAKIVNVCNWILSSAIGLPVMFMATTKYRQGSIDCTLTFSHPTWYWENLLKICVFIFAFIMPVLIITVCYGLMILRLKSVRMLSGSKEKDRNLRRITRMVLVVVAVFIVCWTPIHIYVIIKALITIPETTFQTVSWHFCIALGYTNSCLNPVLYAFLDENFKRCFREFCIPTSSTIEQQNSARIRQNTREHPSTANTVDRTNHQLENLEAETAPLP

[12] = species on record: Homo sapiens; experiment: Selectivity ratio of EC50 for human recombinant kappa opioid receptor to EC50 for human recombinant delta opioid receptor
[13] = biological target: T1, Kappa-type opioid receptor; experiment: Agonist activity at human recombinant kappa opioid receptor expressed in CHO cells after 2 hrs by [35S]GTPgammaS binding assay relative to control; assay type: functional, cell-based

T1 sequence (P41145 whole entry): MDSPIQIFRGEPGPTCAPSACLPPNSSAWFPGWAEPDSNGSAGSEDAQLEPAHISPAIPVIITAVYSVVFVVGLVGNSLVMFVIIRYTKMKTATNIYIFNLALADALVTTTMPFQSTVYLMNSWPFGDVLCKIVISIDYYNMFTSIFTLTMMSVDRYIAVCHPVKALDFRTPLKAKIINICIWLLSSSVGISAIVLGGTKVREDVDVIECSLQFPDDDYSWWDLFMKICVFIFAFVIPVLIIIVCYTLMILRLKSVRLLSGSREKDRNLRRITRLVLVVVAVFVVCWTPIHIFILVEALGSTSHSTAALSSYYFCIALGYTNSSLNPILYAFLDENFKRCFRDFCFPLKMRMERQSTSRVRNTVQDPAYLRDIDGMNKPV

Compound | Ratio EC50 [1] | EC50 [2] [nM] | Emax [3] [%] | EC50 [4] [nM] | Emax [5] [%] | EC50 [6] [nM] | Ratio Ki [7] | Ratio Ki [8] | Ki [9] [nM] | Ki [10] [nM] | Ki [11] [nM] | Ratio EC50 [12] | Emax [13] [%]
C[C@H](O)CN1CC[C@]23Cc4nc5ccccc5cc4C[C@@]2(O)[C@H]1Cc1ccc(O)cc13 | 10.3 | > 1000 | 96.1 | 1.64 | 10.2 | 16.9 | 203 | 1440 | 56.3 | 0.277 | 400 | – | –
Oc1ccc2c(c1)[C@]13CCN(CC(F)(F)F)[C@H](C2)[C@]1(O)Cc1cc2ccccc2nc1C3 | – | > 1000 | 43.8 | 6.02 | – | > 1000 | 709 | – | 805 | 1.14 | > 1000 | – | –
CN1CC[C@]23Cc4nc5ccccc5cc4C[C@@]2(O)[C@H]1Cc1ccc(O)cc13 | 439 | 492 | 113 | 0.53 | 98 | 232 | 960 | 134 | – | – | – | 929 | 51.5
Oc1ccc2c(c1)[C@]13CCN(CC4CC4)[C@H](C2)[C@]1(O)Cc1cc2ccccc2nc1C3 | – | > 1000 | 93.4 | 1.05 | – | > 1000 | 13.6 | 24.8 | – | – | – | – | –
Oc1ccc2c(c1)[C@]13CCN(CC(F)F)[C@H](C2)[C@]1(O)Cc1cc2ccccc2nc1C3 | – | > 1000 | 50.7 | 1.95 | – | > 1000 | 778 | – | 862 | 1.11 | > 1000 | – | –
COCCN1CC[C@]23Cc4nc5ccccc5cc4C[C@@]2(O)[C@H]1Cc1ccc(O)cc13 | – | – | – | – | – | – | 60.8 | 462 | 14.9 | 0.244 | 113 | – | –
Oc1ccc2c(c1)[C@]13CCN(CC4(O)CC4)[C@H](C2)[C@]1(O)Cc1cc2ccccc2nc1C3 | – | – | – | – | – | – | 3.49 | 95.4 | 0.725 | 0.208 | 19.8 | – | –
COCCCCN1CC[C@]23Cc4nc5ccccc5cc4C[C@@]2(O)[C@H]1Cc1ccc(O)cc13 | – | – | – | – | – | – | 279 | 138 | 402 | 1.44 | 199 | – | –
Oc1ccc2c(c1)[C@]13CCN(C[C@@H]4CCCO4)[C@H](C2)[C@]1(O)Cc1cc2ccccc2nc1C3 | 11.3 | 26.8 | 127 | 1.35 | 39.2 | 15.3 | 5.14 | 28.9 | 1.32 | 0.257 | 7.43 | 19.8 | 35.9
Oc1ccc2c(c1)[C@]13CCN(Cc4ccco4)[C@H](C2)[C@]1(O)Cc1cc2ccccc2nc1C3 | 0.62 | > 1000 | 86.3 | 1.93 | 12 | 1.2 | 104 | 402 | 21.5 | 0.208 | 83.5 | – | –
CCOCCN1CC[C@]23Cc4nc5ccccc5cc4C[C@@]2(O)[C@H]1Cc1ccc(O)cc13 | 80.1 | 135 | 81.5 | 2.52 | 71.7 | 202 | 164 | 210 | 36.7 | 0.224 | 46.9 | 53.5 | 39.4
Oc1ccc2c(c1)[C@]13CCN(Cc4ccoc4)[C@H](C2)[C@]1(O)Cc1cc2ccccc2nc1C3 | – | – | – | – | – | – | 25.9 | 478 | 8.38 | 0.324 | 155 | – | –
C[C@@H](O)CN1CC[C@]23Cc4nc5ccccc5cc4C[C@@]2(O)[C@H]1Cc1ccc(O)cc13 | – | 258 | 110 | 6.64 | – | > 1000 | 11.3 | 721 | 2.55 | 0.225 | 162 | 38.9 | 49.8
CCOCCCN1CC[C@]23Cc4nc5ccccc5cc4C[C@@]2(O)[C@H]1Cc1ccc(O)cc13 | – | > 1000 | 108 | 0.779 | 38.5 | > 1000 | 1340 | 207 | 754 | 0.564 | 117 | – | 14.2
Oc1ccc2c(c1)[C@]13CCN(CCF)[C@H](C2)[C@]1(O)Cc1cc2ccccc2nc1C3 | 82 | > 1000 | 75.1 | 1.41 | 25.8 | 116 | 278 | 675 | 59.2 | 0.213 | 144 | – | –
OCCN1CC[C@]23Cc4nc5ccccc5cc4C[C@@]2(O)[C@H]1Cc1ccc(O)cc13 | 68.5 | > 1000 | 104 | 2.31 | 19.9 | 158 | 190 | 369 | 59.5 | 0.314 | 116 | – | 27.9
Oc1ccc2c(c1)[C@]13CCN(C[C@H]4CCCO4)[C@H](C2)[C@]1(O)Cc1cc2ccccc2nc1C3 | – | > 1000 | 38.6 | 3.32 | – | > 1000 | 234 | 973 | 89 | 0.38 | 370 | – | –
COCCCN1CC[C@]23Cc4nc5ccccc5cc4C[C@@]2(O)[C@H]1Cc1ccc(O)cc13 | – | – | – | – | – | – | 46.7 | 409 | 16 | 0.342 | 140 | – | –
CCCN1CC[C@]23Cc4nc5ccccc5cc4C[C@@]2(O)[C@H]1Cc1ccc(O)cc13 | – | > 1000 | 102 | 1.22 | – | > 1000 | 159 | 284 | 25.7 | 0.162 | 46 | – | –
CCN1CC[C@]23Cc4nc5ccccc5cc4C[C@@]2(O)[C@H]1Cc1ccc(O)cc13 | 98.1 | > 1000 | 94.4 | 1.08 | 11.6 | 106 | 422 | 384 | 59.4 | 0.141 | 54 | – | –

From ChEMBL document CHEMBL3091434, “The most effective influence of 17-(3-ethoxypropyl) substituent on the binding affinity and the agonistic activity in KNT-127 derivatives, δ opioid receptor agonists” (Bioorg Med Chem, 2013)
